# Measured values as given in PMC7738283, “Discovery of orally active chalcones as histone lysine specific demethylase 1 inhibitors for the treatment of leukaemia” (Journal of Enzyme Inhibition and Medicinal Chemistry, 2020).
# “Also recorded” adds a separate entry of the source.
# Legend:
# SUP-B15 cells = assay: MTT cell viability assay, SUP-B15; type: cell-based; details: Homo sapiens, SUP-B15 leukaemia cells, read-out: IC50 cell proliferation SUP-B15
# Description: (§3) All cell lines were purchased from the China Centre for Type Culture Collection (CCTCC, China). […] Then, 20 μL of MTT (3–(4,5-dimethylthiazol-2-yl)-2,5-diphenyltetrazolium bromide) solution (5 mg/ml) was added and the cells were incubated for 4 h. The absorbance was measured using a microplate reader (DeTie Technology Co., Ltd, NanJing, China).
# LC4-1 cells = assay: MTT cell viability assay, LC4-1; type: cell-based; details: Homo sapiens, LC4-1 leukaemia cells, read-out: IC50 cell proliferation LC4-1
# Description: as §3
# MOLT-4 cells = assay: MTT cell viability assay, MOLT-4; type: cell-based, human
# Description: as §3
# P30-OHK cells = assay: MTT cell viability assay, P30-OHK; type: cell-based; details: Homo sapiens, P30-OHK leukaemia cells, read-out: IC50 cell proliferation P30-OHK
# Description: as §3
# HAL-01 cells = assay: MTT cell viability assay, HAL-01; type: cell-based; details: Homo sapiens, HAL-01 leukaemia cells, read-out: IC50 cell proliferation HAL-01
# Description: as §3
# KE-37 cells = assay: MTT cell viability assay, KE-37; type: cell-based; details: Homo sapiens, KE-37 leukaemia cells, read-out: IC50 cell proliferation KE-37
# Description: as §3
# MAO-B = target: T1, MAO-B (Homo sapiens, UniProt P27338); assay: MAO-B inhibition assay (MAO-Glo kit); type: biochemical; details: for IC50: in vitro, MAO-AB [sic]
# T1 construct: purchased Active Motif 31503
# T1 sequence (P27338 1-520): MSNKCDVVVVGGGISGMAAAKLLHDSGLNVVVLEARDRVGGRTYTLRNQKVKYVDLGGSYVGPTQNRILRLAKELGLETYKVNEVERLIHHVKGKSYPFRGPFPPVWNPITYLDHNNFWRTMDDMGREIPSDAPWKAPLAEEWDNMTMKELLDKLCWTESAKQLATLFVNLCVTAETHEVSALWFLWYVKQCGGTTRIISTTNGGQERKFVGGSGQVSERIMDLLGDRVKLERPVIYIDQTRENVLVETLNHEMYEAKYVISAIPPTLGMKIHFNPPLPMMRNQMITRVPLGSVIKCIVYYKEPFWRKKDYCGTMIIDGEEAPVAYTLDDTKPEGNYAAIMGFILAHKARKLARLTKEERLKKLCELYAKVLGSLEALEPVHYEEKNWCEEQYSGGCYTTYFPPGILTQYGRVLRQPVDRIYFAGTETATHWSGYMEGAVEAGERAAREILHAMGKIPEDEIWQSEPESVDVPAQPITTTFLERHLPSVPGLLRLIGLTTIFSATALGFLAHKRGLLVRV
# Description: (§1) The inhibition of LSD1 activity was evaluated according to reported references. pET-28b-LSD1 (full length) was transfected into BL21 (DE). Then, the protein was induced with 0.25 mmol/L IPTG following sonication and purified with Ni-NTA (Qiagen, Tubingen, Germany), Resource Q (GE, Pittsburgh, PA, USA) and Sephacryl S-200 HR (GE, Pittsburgh, PA, USA). The fluorescence intensity was read using EnVision Plate Reader (PerkinElmer, Waltham, MA, USA) to calculate the inhibition rate. The MAO-A and MAO-B were purchased from Active Motif (Cat#31502, Cat#31503, Carlsbad, CA, USA). Biochemical Kits were purchased from Promega (MAO-Glo Assay, Madison, WI, USA). The inhibitory activities of MAO-A and MAO-B were obtained according to the reported reference. The inhibitory activities of CDK1 and CDK2 were obtained according to the reported reference.
# MAO-A = target: T2, MAO-A (Homo sapiens, UniProt P21397); assay: MAO-A inhibition assay (MAO-Glo kit); type: biochemical; details: for IC50: in vitro
# T2 construct: purchased Active Motif 31502
# T2 sequence (P21397 1-527): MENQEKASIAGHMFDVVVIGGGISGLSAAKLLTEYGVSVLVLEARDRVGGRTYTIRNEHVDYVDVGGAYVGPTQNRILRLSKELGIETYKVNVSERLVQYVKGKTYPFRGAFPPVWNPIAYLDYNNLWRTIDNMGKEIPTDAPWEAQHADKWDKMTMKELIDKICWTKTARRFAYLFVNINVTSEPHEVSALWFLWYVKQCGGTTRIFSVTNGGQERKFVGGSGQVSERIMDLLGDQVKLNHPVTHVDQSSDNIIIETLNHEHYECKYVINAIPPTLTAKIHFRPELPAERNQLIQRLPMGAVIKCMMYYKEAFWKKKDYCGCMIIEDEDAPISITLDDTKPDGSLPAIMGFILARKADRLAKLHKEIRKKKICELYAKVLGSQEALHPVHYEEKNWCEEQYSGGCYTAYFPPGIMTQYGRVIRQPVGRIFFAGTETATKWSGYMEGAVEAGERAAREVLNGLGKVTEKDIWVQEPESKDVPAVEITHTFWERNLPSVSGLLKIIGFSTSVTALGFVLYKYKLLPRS
# Description: as §1
# LSD1 = target: T3, LSD1 (Homo sapiens, UniProt O60341); assay: LSD1 enzyme inhibition assay (recombinant LSD1, fluorescence); type: biochemical; details: for IC50: in vitro
# T3 construct: pET-28b-LSD1 (full length) was transfected into BL21 (DE); inferred from the pET-28b vector and Ni-NTA purification; made in house; host or cells: E. coli BL21 (DE)
# Description: (§4) The inhibition of LSD1 activity was evaluated according to reported references [23, 24]. pET-28b-LSD1 (full length) was transfected into BL21 (DE). Then, the protein was induced with 0.25 mmol/L IPTG following sonication and purified with Ni-NTA (Qiagen, Tubingen, Germany), Resource Q (GE, Pittsburgh, PA, USA) and Sephacryl S-200 HR (GE, Pittsburgh, PA, USA). The fluorescence intensity was read using EnVision Plate Reader (PerkinElmer, Waltham, MA, USA) to calculate the inhibition rate. […] The inhibitory activities of CDK1 and CDK2 were obtained according to the reported reference [26].
# [1] = test system: Caco-2 (colon cancer cells); assay: MTT cell viability assay, Caco-2; type: cell-based; details: 4, 8, 16 μM; 48 h and 72 h
# Description: (§2) Cancer cell lines (Hela, 22RV1, Caco-2, BEL-7402, MOLT-4, OVCAR-3, HCT-8, HIC, IMR-32, HAL-01, KE-37, P30-OHK, SUP-B15 and LC4-1) were maintained in RPMI 1640 medium (Hyclone, Los Angeles, CA, USA) with 10% foetal bovine serum (Hyclone, Los Angeles, USA) and 1% penicillin-streptomycin (Hyclone, Los Angeles, USA) in a humidified atmosphere of 5% CO2 and 95% air at 37 °C. All cell lines were purchased from the China Centre for Type Culture Collection (CCTCC, China). Control containing sequence specific for LSD1 ([…]) was described. The shRNA constructs were transfected into MOLT-4 cells using the Lonza Group nucleofector technology in accordance with the manufacturer’s instructions. MOLT-4&shLSD1 cells and MOLT-4&shControl cells were also established and cultured according to the published references. After the incubation for 24 h, cancer cell lines were cultured with the chalcone D6 at different concentrations. Then, 20 μL of MTT (3–(4,5-dimethylthiazol-2-yl)-2,5-diphenyltetrazolium bromide) solution (5 mg/ml) was added and the cells were incubated for 4 h. The absorbance was measured using a microplate reader (DeTie Technology Co., Ltd, NanJing, China).
# [2] = test system: 22RV1 (prostate cancer cells); assay: MTT cell viability assay, 22RV1; type: cell-based; details: 4, 8, 16 μM; 48 h and 72 h
# Description: as §2
# MOLT-4 xenograft = MOLT-4 xenograft study; type: in vivo; details: 60 mg/kg and 100 mg/kg, intragastric, 21 days
# Description: Animals were treated according to the protocols established by the ethics committee of Shengjing Hospital of China Medical University and the in vivo experiments were carried out in accordance with the approved guidelines and approved by the ethics committee of Shengjing Hospital of China Medical University. BALB/c nude mice were purchased from Hunan Slack Scene of Laboratory Animal Co., Ltd. (Hunan, China). Xenograft models using human leukaemia cells, MOLT-4, were established in BALB/c mice. Then, mice were separated into vehicle group and treatment groups (60 mg/kg and 100 mg/kg). The treatment groups received compound D6 by intragastric administration for a period of 21 days.
# [3] = test system: H3K9me1 and H3K9me2 in MOLT-4 cells; assay: Western blotting of LSD1 substrates H3K9me1/2 in MOLT-4 cells; type: cell-based, human; details: western blot
# Description: Western blot was performed with the total lysates using RIPA buffer (Hyclone, Los Angeles, CA, USA). Same amounts of protein were subjected to SDS-PAGE, and then transferred to nitrocellulose membranes (PALL, Cortland, NY, USA). After blocking with 5% milk solution, the membranes were incubated at 4 °C with respective antibody overnight, followed by the incubation with a secondary antibody. Finally, the blot was visualised by enhanced chemiluminescence kit (Thermo Fisher, Waltham, MA, USA).
# [4] = test system: IMR-32 (neuroblastoma cells); assay: MTT cell viability assay, IMR-32; type: cell-based; details: 4, 8, 16 μM; 48 h and 72 h
# Description: as §2
# CDK1 = CDK1 (Homo sapiens, UniProt P06493); assay: CDK1 enzyme assay; type: biochemical; details: 400 nM; read-out: inhibition rate CDK1
# Description: as §4
# CDK2 = CDK2 (Homo sapiens, UniProt P24941); assay: CDK2 enzyme assay; type: biochemical; details: 400 nM; read-out: inhibition rate CDK2
# Description: as §4
# Sequence of CDK1 (P06493 whole entry, species assumed): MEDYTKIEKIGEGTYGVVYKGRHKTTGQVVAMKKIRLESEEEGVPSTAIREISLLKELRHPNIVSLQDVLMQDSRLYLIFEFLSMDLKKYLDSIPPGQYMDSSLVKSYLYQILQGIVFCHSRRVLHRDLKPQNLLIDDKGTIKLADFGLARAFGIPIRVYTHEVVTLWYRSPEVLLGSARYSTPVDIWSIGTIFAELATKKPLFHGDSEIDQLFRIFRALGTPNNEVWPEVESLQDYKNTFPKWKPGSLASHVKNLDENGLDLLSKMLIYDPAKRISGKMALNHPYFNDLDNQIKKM
# Sequence of CDK1 (P14635 whole entry partner, species assumed): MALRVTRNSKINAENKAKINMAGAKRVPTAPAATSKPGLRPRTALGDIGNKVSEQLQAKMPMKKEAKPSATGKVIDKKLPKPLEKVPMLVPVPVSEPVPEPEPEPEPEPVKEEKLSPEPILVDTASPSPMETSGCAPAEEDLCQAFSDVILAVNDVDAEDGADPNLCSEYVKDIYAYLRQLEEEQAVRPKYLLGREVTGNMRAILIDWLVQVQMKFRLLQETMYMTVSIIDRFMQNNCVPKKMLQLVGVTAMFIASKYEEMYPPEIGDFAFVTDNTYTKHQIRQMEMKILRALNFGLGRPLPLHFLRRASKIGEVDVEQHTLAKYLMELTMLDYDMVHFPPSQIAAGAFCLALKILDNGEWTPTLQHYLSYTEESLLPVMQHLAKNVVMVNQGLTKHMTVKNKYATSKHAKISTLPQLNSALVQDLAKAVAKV
SMILES,IC50 (MAO-B) [µM],IC50 (MAO-A) [µM],melting point [°C],IC50 (LSD1) [µM],other results
O=c1[nH]cc(F)c(=O)[nH]1 [5-Fluorouracil],,,,,"IC50 (SUP-B15 cells): 2.1 µM; IC50 (LC4-1 cells): 10.2 µM; IC50 (MOLT-4 cells; Homo sapiens, MOLT-4 leukaemia cells, MTT, read-out: IC50 cell proliferation MOLT-4): 2.89 µM; IC50 (P30-OHK cells): 4.17 µM; IC50 (HAL-01 cells): 5.1 µM; IC50 (KE-37 cells): 4.02 µM"
"O=C(CCl)Nc1ccc(C(=O)/C=C/c2ccccc2)cc1 [C1, (E)-2-Chloro-N-(4-cinnamoylphenyl)acetamide]",> 20,> 20,145 to 147,> 20,
"O=C(CCl)Nc1ccc(C(=O)/C=C/c2cccc(F)c2)cc1 [C2, (E)-2-Chloro-N-(4–(3-(3-fluorophenyl)acryloyl)phenyl)acetamide]",> 20,> 20,156 to 158,19.7 ± 0.67,
"O=C(CCl)Nc1ccc(C(=O)/C=C/c2ccccc2F)cc1 [C3, (E)-2-Chloro-N-(4–(3-(2-fluorophenyl)acryloyl)phenyl)acetamide]",> 20,> 20,167 to 169,15.4 ± 0.28,
O=C(CCl)Nc1ccc(C(=O)/C=C/c2ccc(F)cc2)cc1 [C4],> 20,> 20,,> 20,
"Nc1ccc(C(=O)/C=C/c2ccccc2F)cc1 [Chalcone 4, reference compound]",> 20,> 20,,> 20,
"CC(C)(C)OC(=O)N1CCN(C(=S)SCC(=O)Nc2ccc(C(=O)/C=C/c3ccccc3F)cc2)CC1 [D6, Tert-butyl-(E)-4-(((2-((4–(3-(2-fluorophenyl)acryloyl)phenyl)amino)-2-oxoethyl)thio)carbonothioyl)piperazine-1-carboxylate]",> 20,> 20,,,"antiproliferative effects (cell viability) Caco-2 [1]: potential antiproliferative effects; antiproliferative effects (cell viability) 22RV1 [2]: potential antiproliferative effects; inhibition at 0.4 µM (MAO-B; 400 nM, read-out: inhibition rate MAO-B): 17.7%; inhibition at 0.4 µM (MAO-A; 400 nM, read-out: inhibition rate MAO-A): 16.3%; body weight of mice (MOLT-4 xenograft): almost unchanged; global toxicity in xenograft model (MOLT-4 xenograft): low global toxicity; also recorded: without apparent toxicity; tumour growth (tumour volume, tumour weight) (MOLT-4 xenograft): significantly suppressed MOLT-4 xenograft tumour growth; also recorded: inhibited tumour growth remarkably; also recorded: inhibited in vivo tumour growth; amount of H3K9me1 and H3K9me2 [3]: induce the accumulation of H3K9me1/2; also recorded: concentration dependent accumulation; also recorded: up-regulated the expression levels of H3K9me1 and H3K9me2; expression level of LSD1 [3]: did not affect; antiproliferative effects (cell viability) MOLT-4 (MOLT-4 cells; 4, 8, 16 μM, 48 h and 72 h): potential antiproliferative effects; antiproliferation efficiency (MOLT-4 cells; MOLT-4 cells, 48 h, 4 μM): around 80%; antiproliferative effects (cell viability) IMR-32 [4]: potential antiproliferative effects; inhibition at 0.4 µM (CDK1): 16.3%; inhibition at 0.4 µM (CDK2): 19%"
"Cc1ccc(Cn2cc(CSC(=S)N3CCN(C(=O)OC(C)(C)C)CC3)nn2)cc1 [Dithiocarbamate 26, reference compound]",> 20,> 20,,,

# Further lines, with some results ahead:
IC50 (MAO-B) [µM],IC50 (MAO-A) [µM],melting point [°C],IC50 (LSD1) [µM],SMILES,other results
> 20,> 20,182 to 184,11.3 ± 0.13,"CCN1CCN(C(=S)SCC(=O)Nc2ccc(C(=O)/C=C/c3ccc(F)cc3)cc2)CC1 [D1, (E)-2-((4–(3-(4-Fluorophenyl)acryloyl)phenyl)amino)-2-oxoethyl-4-ethylpiperazine-1-carbodithioate]",
> 20,> 20,,9.35 ± 0.14,"CN1CCN(C(=S)SCC(=O)Nc2ccc(C(=O)/C=C/c3ccccc3)cc2)CC1 [D2, (E)-2-((4-Cinnamoylphenyl)amino)-2-oxoethyl-4-methylpiperazine-1-carbodithioate]",
> 20,> 20,181 to 183,13.9 ± 0.18,"CCN1CCN(C(=S)SCC(=O)Nc2ccc(C(=O)/C=C/c3ccccc3)cc2)CC1 [D3, (E)-2-((4-Cinnamoylphenyl)amino)-2-oxoethyl-4-ethylpiperazine-1-carbodithioate]",fold activity loss against LSD1 (fluorine replaced with hydrogen) (LSD1; D3 vs. D5): over 6 fold
> 20,> 20,,6.03 ± 0.17,"CN1CCN(C(=S)SCC(=O)Nc2ccc(C(=O)/C=C/c3cccc(F)c3)cc2)CC1 [D4, (E)-2-((4–(3-(3-Fluorophenyl)acryloyl)phenyl)amino)-2-oxoethyl-4-methylpiperazine-1-carbodithioate]",
> 20,> 20,136 to 138,2.29 ± 0.35,"CCN1CCN(C(=S)SCC(=O)Nc2ccc(C(=O)/C=C/c3cccc(F)c3)cc2)CC1 [D5, (E)-2-((4–(3-(3-Fluorophenyl)acryloyl)phenyl)amino)-2-oxoethyl-4-ethylpiperazine-1-carbodithioate]",
> 20,> 20,,3.27 ± 0.13,"O=C(CSC(=S)N1CCN(Cc2ccccc2)CC1)Nc1ccc(C(=O)/C=C/c2ccccc2F)cc1 [D7, (E)-2-((4–(3-(2-Fluorophenyl)acryloyl)phenyl)amino)-2-oxoethyl-4-benzylpiperazine-1-carbodithioate]",
